Measurements: patent publication US20110060043A1, “INHIBITORS OF CELL PROLIFERATION AND USES THEREOF” (European Molecular Biology Laboratory (EMBL), priority 2008, published 2011)

Tested on: MCF-7 cells
Experiment: Cytotoxicity assay (ATPLite cell viability, 72 h) on MCF-7 cells
Format: cell-based
Details: Homo sapiens, MCF7; 72 hours incubation, triplicate, ATP levels (ATPLite), inhibition of growth vs DMSO only control
Procedure: Preferred compounds were analyzed for their ability to inhibit growth of tumour cells (e.g. MCF7, HL60, LL2, HeLa, PC-3, A549 and A375 cells) in vitro. Growth inhibition was tested at various concentrations in a 10 point two fold serial dilution and cells were incubated under standard mammalian tissue culture conditions for 72 hours in triplicate. Cell viability was measured by measuring ATP levels in viable cells using the ATPLite kit (PerkinElmer) as described in the user manual. Raw data was transformed to percentage inhibition of growth compared to a DMSO only control and values were expressed as IC50 in micromolar calculated using XLfit (IDBS).

COC(=O)c1ccc(C)c(NS(=O)(=O)c2ccc(Cl)cc2)c1 [Compound (VI), 3-[[(4-chlorophenyl)sulfonyl]amino]-4-methyl-benzoic acid methyl ester]
IC50: 1100 nM

COC(=O)c1ccc(C)c(NS(=O)(=O)c2ccc(C)cc2)c1 [Compound (IX), 3-[[(4-methylphenyl)sulfonyl]amino]-4-methyl-benzoic acid methyl ester]
IC50: 280 nM

CCOc1ccc(S(=O)(=O)Nc2cc(C(=O)OC)ccc2C)cc1 [Compound (V), 3-[[(4-ethoxyphenyl)sulfonyl]amino]-4-methyl-benzoic acid methyl ester]
IC50: 160 nM

COC(=O)c1ccc(C)c(NS(=O)(=O)c2ccc(OC)cc2)c1 [Compound (IV), 3-[[(4-methoxyphenyl)sulfonyl]amino]-4-methyl-benzoic acid methyl ester]
IC50: 230 nM
